For test [1], the system named is HeLa cells. The test can be described thus: MTT cell viability assay on HeLa cells. The class given is cell-based. As to conditions: Homo sapiens, 72 h. The method, then:
Elevated expression levels of BAG3 are strongly associated with signaling pathways in various types of malignant cells; consequently, reducing the activity of this co-chaperone inhibits cell proliferation, triggers apoptosis, and induces cell cycle arrest. To assess the activity of compounds 10, 12, and 14, cytotoxicity assays were performed on HeLa cells, which were chosen for their tendency to overexpress BAG3 proteins. MTT assays were conducted by exposing HeLa cells to different concentrations of the compounds (25, 50, and 100 µM) for 72 h. Additionally, 10% DMSO was used as a positive control, while 0.1% DMSO served as a negative control. […] The next step involved the assessment of the cytotoxicity of the most promising candidate, 10, on healthy cells to determine its safety profile. To achieve this, MTT assays were conducted on HaCat cells over 72 h.
Human cervical carcinoma cell lines (HeLa, kindly donated by Prof. Ornella Moltedo, Department of Pharmacy, University of Salerno) and immortalized human keratinocytes (HaCaT) were cultured in a DMEM/high glucose medium. This medium was supplemented with 10% FBS (v/v), 2 mM/L glutamine, 100 U/mL penicillin, and […] streptomycin. The cells were maintained at 37 °C in a humidified atmosphere with 5% CO2. To ensure logarithmic growth, the cells were sub-cultured every 2 days.
Cell viability was assessed by measuring mitochondrial metabolic activity using a colorimetric assay, which involves the reduction of 3-[4,5-dimethylthiazol-2,5-diphenyl-2H-tetrazolium bromide (MTT) to purple formazan. Stock solutions of compounds 10, 12, and 14 (50 mM in DMSO) were stored at −20 °C in the dark and diluted just before being added to the sterile culture medium. Briefly, HeLa cells (3.5 × 10^3 cells/well) were seeded in triplicate in 96-well plates, and after 24 h, to allow for attachment, the cells were treated with various concentrations of the tested compounds (25, 50 and 100 μM), 0.1% (v/v) DMSO as a negative control, and 10% (v/v) DMSO as a positive control for 72 h. Following treatment, 20 μL of MTT (5 mg/mL in PBS) was added to each well, and the cells were incubated for an additional 3 h at 37 °C. The formazan crystals formed were then dissolved in 100 μL of a buffer containing 50% (v/v) N, N-dimethylformamide and 20% SDS (pH 4.5). Absorbance was measured at 570 nm using a Multiskan™ GO Microplate Spectrophotometer (Thermo Fisher Scientific, Waltham, MA, USA,). […] The IC50 values, representing the concentration causing 50% inhibition of cell survival, were calculated and compared to control cells treated with DMSO using GraphPad Prism 8.0 software through nonlinear regression of dose–response inhibition. Only for compound 10 was the IC50 also assessed on HaCaT cells (5.0 × 10^3 cells/well) after 72 h of treatment.
(Formazan colour is commonly taken as a measure of viable cells.)

Test [2] has as its target T1, BAG3 full-length (Homo sapiens, UniProt O95817).
T1 construct: both the full-length BAG3 protein and its BAG domain; purchased Novus Biologicals (Littleton, CO, USA)
The test can be described thus: SPR assay on BAG3 full-length protein. Conditions: Biacore T200, 0 to 100 µM, 25 °C, 1:1 interaction model, n.b. = no binding, read-out: BAG3 FULL KD (µM) ± SD. The method, then: In this study, we employed SPR experiments to evaluate the interactions between synthesized compounds (1–14) and both the full-length BAG3 protein and its BAG domain. Only the compounds that successfully bound to the full-length BAG3 protein were tested for their interaction with the BAG domain. Protein immobilization was achieved using the amide coupling method, and the compounds were tested at ten different concentrations, ranging from 0 to 100 µM. A known binder of BAG3-BD, LK4 ((Z)-ethyl 2-(5-(3,4-dihydroxybenzylidene)-2,4-dioxothiazolidin-3yl)acetate), was used as a positive control. […] Compound 14 also bound the target but with slightly higher KD values, still within the micromolar range. The three identified compounds were further investigated to understand whether this binding induced an effect on BAG3 protein functions. The KD values reported in Table 1 for the known inhibitor LK4 differ from those in previous studies due to the use of a newer-generation instrument for the SPR experiments. The earlier experiments utilized the Biacore 3000, whereas the current study employed the Biacore T200. While ligand binding was confirmed in both sets of experiments, the slightly different KD values are attributed to the enhanced sensitivity of the Biacore T200.
Recombinant human BAG3 protein (Bcl2-associated athanogene 3) was sourced from Novus Biologicals (Littleton, CO, USA), while the BAG3 domain (BAG3-BD) was procured from ARETA International S.r.l. (Gerenzano, Italy). We utilized (Z)-ethyl 2-(5-(3,4-dihydroxybenzylidene)-2,4-dioxothiazolidin-3-yl)acetate (LK4), a known BAG3 inhibitor previously identified by our group. Surface Plasmon Resonance (SPR) spectroscopy was employed to assess the affinity of synthesized molecules for BAG3 and BAG-BD using a Biacore T200 optical biosensor equipped with CM5 sensor chips (Cytiva, Marlborough, MA, USA). BAG3 and BAG-BD were immobilized on the CM5 sensor chip using standard amine-coupling protocols. BAG3 protein (0.067 μg/μL in 10 mM CH3COONa, pH 4.5) was immobilized at a flow rate of 10 μL/min, resulting in a density of 14 kRU. The BAG3 domain (0.38 μg/μL in 10 mM CH3COONa, pH 4.5) was immobilized under similar conditions, achieving a density of 4 kRU. For the experiments, BAG3 and BAG-BD surfaces, along with an unmodified reference surface, were prepared for simultaneous analyses.
Compounds 1–14 and LK4 were dissolved to 10 mM in 100% DMSO and then diluted 1:20 (v/v) in PBS-P buffer (0.2 M phosphate buffer, 27 mM KCl, 1.37 M NaCl, 0.5% surfactant P20) to achieve a final DMSO concentration of 5.0%. These compounds were injected in a concentration series (1:2 dilution, 10 different concentrations) ranging from 0 to 100 μM, prepared in 96-well plates. SPR experiments were conducted at 25 °C with a flow rate of 20 μL/min, featuring 90 s of association and 400 s of dissociation monitoring. Changes in mass, reflected as resonance units (RU), were recorded to determine binding responses. KD values were calculated using Biaevaluation software 3.2 by globally fitting the double-referenced association and dissociation data to a 1:1 interaction model. See Supplementary Materials for all the sensorgrams (Figures S43–S50).

Test [3] relates to HaCat cells. The test can be described thus: MTT cell viability assay on HaCat healthy cells. The class given is cell-based. As to conditions: Homo sapiens, 72 h, seven concentrations (1 to 100 μM). The method, then:
Elevated expression levels of BAG3 are strongly associated with signaling pathways in various types of malignant cells; consequently, reducing the activity of this co-chaperone inhibits cell proliferation, triggers apoptosis, and induces cell cycle arrest. To assess the activity of compounds 10, 12, and 14, cytotoxicity assays were performed on HeLa cells, which were chosen for their tendency to overexpress BAG3 proteins. MTT assays were conducted by exposing HeLa cells to different concentrations of the compounds (25, 50, and 100 µM) for 72 h. Additionally, 10% DMSO was used as a positive control, while 0.1% DMSO served as a negative control. […] The next step involved the assessment of the cytotoxicity of the most promising candidate, 10, on healthy cells to determine its safety profile. To achieve this, MTT assays were conducted on HaCat cells over 72 h. […]
Cell viability was assessed by measuring mitochondrial metabolic activity using a colorimetric assay, which involves the reduction of 3-[4,5-dimethylthiazol-2,5-diphenyl-2H-tetrazolium bromide (MTT) to purple formazan. […] Absorbance was measured at 570 nm using a Multiskan™ GO Microplate Spectrophotometer (Thermo Fisher Scientific, Waltham, MA, USA,). […]

One may read the mortality as the share of the test organisms that died. Read a low mortality as more survivors. A word on the IC50: it is the concentration that gives 50% inhibition. Read a low IC50 as higher potency. Usually Kd stands for the free concentration of one partner at which half of the binding sites on the other are occupied at equilibrium, for simple one-to-one binding.

T1 sequence (O95817 whole entry, the tested form may be a part): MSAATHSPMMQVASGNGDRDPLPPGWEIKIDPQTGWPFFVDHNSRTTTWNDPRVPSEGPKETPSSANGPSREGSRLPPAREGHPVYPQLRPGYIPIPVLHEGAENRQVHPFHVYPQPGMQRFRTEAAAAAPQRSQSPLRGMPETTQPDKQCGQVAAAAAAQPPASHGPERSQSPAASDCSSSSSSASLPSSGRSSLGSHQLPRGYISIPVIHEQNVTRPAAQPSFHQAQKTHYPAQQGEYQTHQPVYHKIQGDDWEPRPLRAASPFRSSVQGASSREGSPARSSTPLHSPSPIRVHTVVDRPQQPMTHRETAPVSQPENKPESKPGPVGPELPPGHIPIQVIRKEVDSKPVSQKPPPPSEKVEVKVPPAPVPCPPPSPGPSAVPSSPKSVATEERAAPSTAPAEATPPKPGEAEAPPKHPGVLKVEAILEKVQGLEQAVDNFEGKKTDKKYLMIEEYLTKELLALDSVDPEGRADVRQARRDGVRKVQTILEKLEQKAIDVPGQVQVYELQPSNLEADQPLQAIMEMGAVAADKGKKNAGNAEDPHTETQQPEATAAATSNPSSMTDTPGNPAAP

In test [1] (25 µM), `CC(C)Nc1c(-c2ccccc2Br)nc2ccc(Cl)cn12` [Compound 10, 2-(2-bromophenyl)-6-chloro-N-isopropylimidazo[1,2-a]pyridin-3-amine] registered a mortality at 25 µM of 50%. This compound displayed a mortality at 100 µM in test [1] (100 µM) greater than 90%. Moreover, the IC50 in test [1] (seven concentrations (1 to 100 µM)) was 25.1 ± 2.67 µM; in test [3], 81.3 ± 4.83 µM. The Kd in test [2] worked out at 33.5 ± 0.21 µM.

Source of the values: PMC11547576, “Identification of a New Promising BAG3 Modulator Featuring the Imidazopyridine Scaffold” (Molecules, 2024).
